{"source": "patent US5808040A", "about": "“L-nucleosides incorporated into polymeric structure for stabilization of oligonucleotides” (priority 1997, dated 1998)", "key": {"EBV": {"system": "EBV", "assay": "Inhibitory effect on EBV in H1 cells, bioassay by EBV DP activity in superinfected Raji cells", "assay_type": "cell-based, Epstein-Barr virus", "settings": "EBV ID90 vs H1 cell CD50", "method": "(§1) H1 cells were maintained in […] growth for two days prior to the initiation of treatment. The cells were centrifuged at 600 g for 10 min. at room temperature to separate them from the medium containing pre-existing virus particles. The H1 cells were seeded in 24 well plates at a density of 1×10^5 cells per well in 2 ml of fresh medium with or without drug and incubated at 37° C. for 5 days. The medium containing virion was saved and used for evaluating the inhibitory effect of drugs on virus production and infectivity by use of a bioassay. The virion were pelleted from the cell free medium by centrifugation at 45,000 rpm for 90 min. in a SW-50 Ti rotor (Beckman). The virion were resuspended in 1 ml growth medium and then used to infect 1×10^6 Raji cells for 48 hours. Since the level of EBV DP activity in Raji cells post superinfection is proportional to the number of virions added, the EBV specific DP activity induced was able to be measured. The inhibitory drug effect was calculated by comparing the EBV DP activity to multiple dilution controls.\nand compared with controls. Hl cells were treated for 5 days and the\nID90 was determined by bioassay."}, "H1 cells": {"system": "H1 cells", "assay": "Cytotoxicity in H1 cells (72 hours, cell count)", "assay_type": "cell-based", "settings": "summary statement, cells not specified", "method": "Inhibitory effect of compounds on EBV: The CD50 was performed by\nexposing Hl cells to different concentrations of the compounds in normal\ngrowth medium at 37° C. for 72 hours; the cells were then counted\nand compared with controls. Hl cells were treated for 5 days and the […]"}, "mitochondrial DNA": {"system": "mitochondrial DNA", "assay": "Mitochondrial DNA content in H1 cells (slot blot assay)", "assay_type": "cell-based, human", "settings": "1 mM, 6 days", "method": "as §1\nSlot Blot Assay--The amount of mitochondrial DNA was measured by the slot blot method (2). […] The amount of mitochondrial DNA in the treated and non-treated H1 cells was quantified by densitometer (LKB Ultroscan XL)."}, "[1]": {"assay": "Clearance of L-(-)-FMAU from plasma and liver of mice after oral administration", "assay_type": "in vivo, mouse", "method": "The clearance of L-(-)-FMAU from the plasma and liver of mice after oral administration was evaluated. Mice were […] with L-(-)-FMAU which was tritium labeled (radiospecificity of […]).\nFIG. 11 is a graph of the plasma concentration of L-(-)-FMAU in mice after oral administration 10 over time, and FIG. 12 is a graph of the concentration of L-(-)-FMAU in mouse liver after oral administration over time (cross, 10 mg/kg administered bid (bi-daily) for 30 days prior to pharmacokinetic study and then study carried out on day thirty one on administration of same concentration; dark circle, 50 mg/kg administered bid for 30 days prior to study and then study carried out on day thirty one on administration of same concentration; open circle, 50 mg/kg administered for the first time on the first day of the study).\nAt the times indicated (see FIGS. 10 and 11) the mice were bled from their retro-orbital sinus using heparinized capillaries. The plasma was extracted with trichloroacetic acid and neutralized with freon/trioctylamine. Supernatants were directly counted and the concentration calculated."}, "[2]": {"assay": "Toxicity in BDF1 female mice, change in body weight over thirty days", "assay_type": "in vivo, mouse", "method": "FIG. 13a illustrates the change in body weight over thirty days of control BDF1 female mice. FIGS. 13b and 13c illustrate the change in body weight over thirty days of BDF1 female mice dosed with 10 mg/kg (13b) and 50 mg/kg (13c) bid of L-(-)-FMAU. The body weight presented represents the mean and standard deviation of that of five to seven mice."}, "[3]": {"assay": "Clinical chemistry of mouse plasma after L-(-)-FMAU treatment", "assay_type": "in vivo", "settings": "10 or 50 mg/kg bid for thirty days", "method": "FIGS. 14-20 provide the clinical chemistry of mouse plasma after administration of L-(-)-FMAU at 10 mg/kg (three mice) or 50 mg/kg (three mice) bid for thirty days."}, "[4]": {"settings": "with the exception of mouse 50-2"}}}
{"molecule": "Nc1nc2c(ncn2COCCO)c(=O)[nH]1", "note": "[ACV]", "values": [{"measurement": "Therapeutic Index (CD50 /ID90)", "setting": "EBV", "result": 20}]}
{"molecule": "CCc1cn([C@@H]2O[C@H](CO)[C@@H](O)[C@@H]2F)c(=O)[nH]c1=O", "note": "[D-FEAU]", "values": [{"measurement": "Therapeutic Index (CD50 /ID90)", "setting": "EBV", "result": 2000}]}
{"molecule": "Nc1nc(=O)n([C@@H]2O[C@H](CO)[C@@H](O)[C@@H]2F)cc1I", "note": "[D-FIAC]", "values": [{"measurement": "Therapeutic Index (CD50 /ID90)", "setting": "EBV", "result": 25}]}
{"molecule": "O=c1[nH]c(=O)n([C@@H]2O[C@H](CO)[C@@H](O)[C@@H]2F)cc1I", "note": "[D-FIAU]", "values": [{"measurement": "Therapeutic Index (CD50 /ID90)", "setting": "EBV", "result": 40}]}
{"molecule": "Cc1cn([C@@H]2O[C@H](CO)[C@@H](O)[C@@H]2F)c(=O)[nH]c1=O", "note": "[D-FMAU]", "values": [{"measurement": "Therapeutic Index (CD50 /ID90)", "setting": "EBV", "result": 50}]}
{"molecule": "Nc1nc2c(ncn2COC(CO)CO)c(=O)[nH]1", "note": "[DHPG]", "values": [{"measurement": "Therapeutic Index (CD50 /ID90)", "setting": "EBV", "result": 15}]}
{"molecule": "CCc1cn([C@H]2O[C@@H](CO)[C@H](O)[C@H]2F)c(=O)[nH]c1=O", "note": "[L-FEAU, 2'-fluoro-5-ethyl-β-L-arabinofuranosyluridine]", "values": [{"measurement": "Therapeutic Index (CD50 /ID90)", "setting": "EBV", "result": 15}]}
{"molecule": "Nc1nc(=O)n([C@H]2O[C@@H](CO)[C@H](O)[C@H]2F)cc1I", "note": "[L-FIAC, 2'-fluoro-5-iodo-β-L-arabinofuranosylcytosine]", "values": [{"measurement": "Therapeutic Index (CD50 /ID90)", "setting": "EBV", "result": "> 40"}]}
{"molecule": "O=c1[nH]c(=O)n([C@H]2O[C@@H](CO)[C@H](O)[C@H]2F)cc1I", "note": "[L-FIAU, 2'-fluoro-5-iodo-β-L-arabinofuranosyluridine]", "values": [{"measurement": "Therapeutic Index (CD50 /ID90)", "setting": "EBV", "result": 12}]}
{"molecule": "Cc1cn([C@H]2O[C@@H](CO)[C@H](O)[C@H]2F)c(=O)[nH]c1=O", "note": "[L-FMAU, 2'-fluoro-5-methyl-β-L-arabinofuranosyluridine]", "values": [{"measurement": "cytotoxicity (in words)", "setting": "H1 cells", "result": "low cytotoxicity"}, {"measurement": "Therapeutic Index (CD50 /ID90)", "setting": "EBV", "result": 200}, {"measurement": "inhibition of mitochondrial DNA content in H1 cells", "setting": "mitochondrial DNA", "result": "No inhibition"}, {"measurement": "time of peak concentration in liver", "setting": "[1]; 10 or 50 mg/kg, liver", "result": "approximately one"}, {"measurement": "clearance from liver", "setting": "[1]; liver", "result": "substantially cleared from both plasma and liver after four hours"}, {"measurement": "clearance from plasma", "setting": "[1]; plasma", "result": "substantially cleared from both plasma and liver after four hours"}, {"measurement": "tolerability", "setting": "[2]; BDF1 female mice, 10 and 50 mg/kg bid, thirty days", "result": "well tolerated"}, {"measurement": "change in body weight", "setting": "[2]; mouse, in vivo", "result": "did not appear to significantly affect the weight of the mice over thirty days"}, {"measurement": "lactic acid in mouse plasma", "setting": "[3]", "result": "not significantly different from those of the control mice"}, {"measurement": "lactic dehydrogenase in mouse plasma", "setting": "[3]", "result": "not significantly different from those of the control mice"}, {"measurement": "total bilirubin in mouse plasma", "setting": "[3]", "result": "fall within the normal human range (less than 1.2 mg/dL)"}, {"measurement": "alkaline phosphatase in mouse plasma", "setting": "[3]; normal human level 30-114 U/L", "result": "somewhat higher than the normal human level"}, {"measurement": "ALT (SGPT) in mouse plasma", "setting": "[3]; [4]", "result": "not different from those of the control mice"}, {"measurement": "creatinine in mouse plasma", "setting": "[3]; [4]", "result": "not different from those of the control mice"}, {"measurement": "AST (SGOT) in mouse plasma", "setting": "[3]; with the exception of mouse 50-2 and mouse 10-2", "result": "not different from those of the control mice"}]}
{"molecule": "Nc1nc2c(ncn2CCC(CO)CO)c(=O)[nH]1", "note": "[PCV]", "values": [{"measurement": "Therapeutic Index (CD50 /ID90)", "setting": "EBV", "result": 25}]}
{"molecule": "O=C(O)P(=O)(O)O", "note": "[PFA]", "values": [{"measurement": "Therapeutic Index (CD50 /ID90)", "setting": "EBV", "result": 16}]}
